# Experimental data from PubChem BioAssay AID2060616 (Molecular Pharmacology Branch, DTP, NCI, 2025).
# Test system: 377384-186-R-J1-PDC complex spheroid viability
# Assay: Anticancer human tumor 377384-186-R-J1-PDC patient-derived pancreatic carcinoma cell line growth inhibition [CLK]
# Conditions: for IC50: curve of first compound; for viability, T/C: stronger effect = lower value
# Outline: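 Multi-cell-type spheroids combined patient-derived tumor cells with HUVEC endothelial cells and human mesenchymal stem cells. Paired agents were dosed in half-log steps down from about clinical Cmax, or from 10 microM where Cmax was unknown.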
# 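Also: spheroids exposed to agents for 7 days before reading.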
# 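For viability, T/C in this document: luminescence signal used as a stand-in for viable cells.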
structure (smiles),measurement,setting,value
CC(C)CC(NC(=O)C(Cc1ccccc1)NC(=O)c1cnccn1)B(O)O (centres undefined) + CNC(=O)c1ccc(Nc2nc(OC3CCCC3)c3c(-c4ccc5nc(C)oc5c4)c[nH]c3n2)c(OC)c1,IC50,second compound 0.0316 µM,1.41 nM
same,IC50,second compound 0.1 µM,< 0.949 nM
same,IC50,second compound 0.316 µM,< 0.949 nM
same,IC50,second compound 1 µM,< 0.949 nM
same,IC50,second compound 3.16 µM,< 0.949 nM
same,IC50,second compound 10 µM,< 0.949 nM
same,"viability, T/C","second compound 0.0316 µM, first compound 0.000949 µM",75.2%
same,"viability, T/C","second compound 0.0316 µM, first compound 0.003 µM",2.16%
same,"viability, T/C","second compound 0.0316 µM, first compound 0.00949 µM",0.37%
same,"viability, T/C","second compound 0.0316 µM, first compound 0.03 µM",0.17%
same,"viability, T/C","second compound 0.0316 µM, first compound 0.0949 µM",0.17%
same,"viability, T/C","second compound 0.0316 µM, first compound 0.3 µM",0.13%
same,"viability, T/C","second compound 0.1 µM, first compound 0.000949 µM",44%
same,"viability, T/C","second compound 0.1 µM, first compound 0.003 µM",1.4%
same,"viability, T/C","second compound 0.1 µM, first compound 0.00949 µM",0.25%
same,"viability, T/C","second compound 0.1 µM, first compound 0.03 µM",0.15%
same,"viability, T/C","second compound 0.1 µM, first compound 0.0949 µM",0.13%
same,"viability, T/C","second compound 0.1 µM, first compound 0.3 µM",0.15%
same,"viability, T/C","second compound 0.316 µM, first compound 0.000949 µM",21.4%
same,"viability, T/C","second compound 0.316 µM, first compound 0.003 µM",0.99%
same,"viability, T/C","second compound 0.316 µM, first compound 0.00949 µM",0.18%
same,"viability, T/C","second compound 0.316 µM, first compound 0.03 µM",0.14%
same,"viability, T/C","second compound 0.316 µM, first compound 0.0949 µM",0.15%
same,"viability, T/C","second compound 0.316 µM, first compound 0.3 µM",1.69%
same,"viability, T/C","second compound 1 µM, first compound 0.000949 µM",17.2%
same,"viability, T/C","second compound 1 µM, first compound 0.003 µM",0.98%
same,"viability, T/C","second compound 1 µM, first compound 0.00949 µM",0.28%
same,"viability, T/C","second compound 1 µM, first compound 0.03 µM",0.24%
same,"viability, T/C","second compound 1 µM, first compound 0.0949 µM",0.51%
same,"viability, T/C","second compound 1 µM, first compound 0.3 µM",0.35%
same,"viability, T/C","second compound 3.16 µM, first compound 0.000949 µM",14.8%
same,"viability, T/C","second compound 3.16 µM, first compound 0.003 µM",0.96%
same,"viability, T/C","second compound 3.16 µM, first compound 0.00949 µM",0.36%
same,"viability, T/C","second compound 3.16 µM, first compound 0.03 µM",0.23%
same,"viability, T/C","second compound 3.16 µM, first compound 0.0949 µM",0.31%
same,"viability, T/C","second compound 3.16 µM, first compound 0.3 µM",0.21%
same,"viability, T/C","second compound 10 µM, first compound 0.000949 µM",14.3%
same,"viability, T/C","second compound 10 µM, first compound 0.003 µM",0.81%
same,"viability, T/C","second compound 10 µM, first compound 0.00949 µM",0.71%
same,"viability, T/C","second compound 10 µM, first compound 0.03 µM",0.24%
same,"viability, T/C","second compound 10 µM, first compound 0.0949 µM",0.62%
same,"viability, T/C","second compound 10 µM, first compound 0.3 µM",0.3%
CC1(C)CCC(CN2CCN(c3ccc(C(=O)NS(=O)(=O)c4ccc(NCC5CCOCC5)c([N+](=O)[O-])c4)c(Oc4cnc5[nH]ccc5c4)c3)CC2)=C(c2ccc(Cl)cc2)C1 + CNC(=O)c1ccc(Nc2nc(OC3CCCC3)c3c(-c4ccc5nc(C)oc5c4)c[nH]c3n2)c(OC)c1,IC50,second compound 0.0316 µM,> 10000 nM
same,IC50,second compound 0.1 µM,> 10000 nM
same,IC50,second compound 0.316 µM,< 31.6 nM
same,IC50,second compound 1 µM,< 31.6 nM
same,IC50,second compound 3.16 µM,< 31.6 nM
same,IC50,second compound 10 µM,< 31.6 nM
same,"viability, T/C","second compound 0.0316 µM, first compound 0.0316 µM",105%
same,"viability, T/C","second compound 0.0316 µM, first compound 0.1 µM",93.2%
same,"viability, T/C","second compound 0.0316 µM, first compound 0.316 µM",96.9%
same,"viability, T/C","second compound 0.0316 µM, first compound 1 µM",109%
same,"viability, T/C","second compound 0.0316 µM, first compound 3.16 µM",82.1%
same,"viability, T/C","second compound 0.0316 µM, first compound 10 µM",104%
same,"viability, T/C","second compound 0.1 µM, first compound 0.0316 µM",59.8%
same,"viability, T/C","second compound 0.1 µM, first compound 0.1 µM",57.4%
same,"viability, T/C","second compound 0.1 µM, first compound 0.316 µM",49.3%
same,"viability, T/C","second compound 0.1 µM, first compound 1 µM",56.6%
same,"viability, T/C","second compound 0.1 µM, first compound 3.16 µM",36.4%
same,"viability, T/C","second compound 0.1 µM, first compound 10 µM",59.8%
same,"viability, T/C","second compound 0.316 µM, first compound 0.0316 µM",20.4%
same,"viability, T/C","second compound 0.316 µM, first compound 0.1 µM",21.6%
same,"viability, T/C","second compound 0.316 µM, first compound 0.316 µM",19.7%
same,"viability, T/C","second compound 0.316 µM, first compound 1 µM",19%
same,"viability, T/C","second compound 0.316 µM, first compound 3.16 µM",17.6%
same,"viability, T/C","second compound 0.316 µM, first compound 10 µM",21.1%
same,"viability, T/C","second compound 1 µM, first compound 0.0316 µM",23.3%
same,"viability, T/C","second compound 1 µM, first compound 0.1 µM",22.5%
same,"viability, T/C","second compound 1 µM, first compound 0.316 µM",18.2%
same,"viability, T/C","second compound 1 µM, first compound 1 µM",19.1%
same,"viability, T/C","second compound 1 µM, first compound 3.16 µM",19.3%
same,"viability, T/C","second compound 1 µM, first compound 10 µM",21.6%
same,"viability, T/C","second compound 3.16 µM, first compound 0.0316 µM",20.2%
same,"viability, T/C","second compound 3.16 µM, first compound 0.1 µM",20.7%
same,"viability, T/C","second compound 3.16 µM, first compound 0.316 µM",20%
same,"viability, T/C","second compound 3.16 µM, first compound 1 µM",18.8%
same,"viability, T/C","second compound 3.16 µM, first compound 3.16 µM",21.9%
same,"viability, T/C","second compound 3.16 µM, first compound 10 µM",20.9%
same,"viability, T/C","second compound 10 µM, first compound 0.0316 µM",20.2%
same,"viability, T/C","second compound 10 µM, first compound 0.1 µM",21.6%
same,"viability, T/C","second compound 10 µM, first compound 0.316 µM",21.2%
same,"viability, T/C","second compound 10 µM, first compound 1 µM",20.1%
same,"viability, T/C","second compound 10 µM, first compound 3.16 µM",19.2%
same,"viability, T/C","second compound 10 µM, first compound 10 µM",21.3%
